# Experimental data taken from US8173604B2, “Inhibition of Skp2-cyclin a interaction” (Albert Einstein College of Medicine of Yeshiva University, priority 2006, dated 2012).
# Entries after “also recorded” stand apart in the source; their conditions may differ. Numbered stars: 1 amine (or outer) side, 2 acyl side, 3 side chain; on linkers, the order of the positions; unused ones are H or OH. Bridge positions count the residues as written; N and C are the ends. Square brackets hold non-standard residues; d marks the D form. Peptide text beside a SMILES is read from it. I, II: the chains in the order shown. Actinocin(9to1) = Cc1c2oc3c(C)ccc(C(=O)[*:1])c3nc-2c(C(=O)[*:2])c(N)c1=O; NMeV = CN[C@H](C(=O)O)C(C)C; Sar = CNCC(=O)O
# Assays:
# [1] = tested on: U2OS cells; conditions: for Cell killing effect: twenty four hours after addition of peptides
# Procedure: It is currently unknown how peptide concentrations in the culture media translate into intro-cellular peptide concentrations.
# Whether artificial manipulation of Skp2 protein levels in U2OS cells could change the IC50 of various peptides was also investigated.
# (§1) Cell proliferation and survival assays. For the cell proliferation assay shown in FIG. 10D, 1×10^4 cells were plated in each well of 24 well plates and allowed to grow for a course of four days in the presence of 10% FBS. Cell numbers were counted every day from triplet wells. For cell survival assays in FIGS. 13, 14 and 15, 1×10^3 cells were plated in each well of 96 well plates and allowed to adhere overnight in the presence of 10% FBS. The cells were washed once with Opti-MEM (GIBCO) followed by incubation with different concentrations of peptides in Opti-MEM for 24 hours in triplicate. MTS assay was then performed following manufacturer's protocol (Promega).
# [2] = biological target: T1, interaction between cellular Skp2 and cyclin A/Cdk2 (Homo sapiens, UniProt P20248); experiment: Coimmunoprecipitation with cyclin A from peptide-treated U2OS cells; type: cell-based; conditions: 50 μM peptide, twelve hours
# T1 construct: endogenous in cells; host or cells: U2OS
# Procedure: FIG. 12 is photographs of western blots and kinase assays and graphs showing the effects of trans-membrane delivery of the 4060 peptide. In Panel A, U2OS cells were treated with 50 μM of indicated peptide for twelve hours. Cell extracts were prepared for immunoprecipitation and Western blot analysis as indicated. […] In Panel C, the same extracts were used in IP-kinase assays as indicated. The extent of phosphorylation was quantified and plotted.
# The loss of Skp2-cyclin A/Cdk2 interaction was not due to a reduction in levels of these proteins (FIG. 12B). Importantly, cellular p27 protein levels were not affected by the blocking peptide. […] Here, it is important to point out that although we used p27 as an inhibitor of cyclin A-associated kinase activity in purified kinase reactions with the 4060 blocking peptide shown in FIG. 11, the effects of blocking Skp2-cyclin A interaction on cyclin A-associated kinase activity in cells is unlikely to be mediated by p27 alone. There was no significant interaction between p27 and cyclin A in U2OS cells before and after treatment of TAT-4060. p27 family members p21 and p57, and the pocket proteins p107 and p130 (Adams et al., 1996) may bind and inhibit cyclin A-associated kinase activity through the RxL-HP interaction mechanism. […]
# [3] = tested on: U2OS cells; experiment: Flow cytometry cell cycle profile after actinomycin D; type: cell-based, human; conditions: actinomycin D 180 nM, 20 hours
# Procedure: Drug treatment and various routine assays. Actinomycin D (Sigma) treatment was for 20-22 hours at 180 nM. To arrest HeLa cells in mitotic phase, cells were treated with 100 ng/ml nocodazole (Sigma) for 16-17 hours. Western blotting, immunoprecipitation, indirect immunofluorescence, and flow cytometry analysis to determine cell cycle profiles were all performed with standard protocols and as described previously (Ji et al., 2004).
# The AAAA mutation compromises Skp2's proliferation stimulatory activity without affecting its ability to cause degradation of cellular p27 and p21. […] Similar to the experiment shown in FIG. 6B, U2OS cells were treated with actinomycin D, which led to activation of p53, stimulation of p21 expression, and G1 cell cycle arrest manifested by a 20% increase in G1 phase cells (FIGS. 9A and B). Skp2 was overexpressed in U2OS cells to determine whether Skp2 could counter the G1 cell cycle arrest mediated by this actinomycin D triggered checkpoint.
# [4] = biological target: T2, cyclin A/Cdk2 (Homo sapiens, UniProt P20248+P24941); experiment: In vitro cyclin A/Cdk2 kinase assay with purified proteins (GST-Rb-C substrate); type: biochemical; conditions: for Preventing Skp2N from protecting cyclin A/Cdk2 from inhibition by p27: cyclin A/Cdk2 3 nM, p27 5 nM, Skp2N 80 nM, increasing amounts of peptide
# T2 construct: made in house; host or cells: insect cells (baculovirus)
# Procedure: (§2) Cyclin A/Cdk2 kinase assays were performed as described previously (Ji et al., 2004). Both immuno-purified myc-cyclin A/Cdk2 on beads and GST-purified and eluted GST-cyclin A/Cdk2 (baculovirus vectors for GST-cyclin A and Cdk2 were provided by Brian Dynlacht) were used. The amounts of purified proteins were determined by comparing them with known amounts of standard proteins in Coomassie blue stained gels. Phosphorylation of GST-Rb-C was quantified with the ImageQuant software. The Ki of various proteins was determined by non-linear least squares analysis. To determine the amounts of various proteins in synchronized HeLa cells, extracts representing 7.5×10^4 HeLa cells were resolved with known amounts of purified proteins and compared in the same Western blots. Actual amounts of proteins in 7.5×10^4 HeLa cells were then determined (for example, the amounts of p27, Skp2, and cyclin A in 7.5×10^4 HeLa cells were determined to be about 0.1, 0.2, and 0.1 pmoles, respectively, at 14 hours post-replating; and about 0.01, 0.1, and 1.0 pmoles, respectively, at 19 hours post-replating).
# For kinase reactions, insect cell-produced and purified GST-cyclin A/Cdk2 was used at a concentration of ˜3 nM, which was the lowest concentration that yielded readily detectible phosphorylation of GST-Rb-C here. Purified p27, GST-Skp2, and Skp2N were titrated into the kinase reaction over a wide range of concentrations (FIGS. 7A, B, and C). Phosphorylation of Rb-C was measured and plotted, and the Ki of these various proteins were determined by non-linear least squares analysis (FIG. 7F).
# Since Skp2 competes with p27 for binding to cyclin A and Skp2's Ki is about 100-fold higher than p27's Ki, it can be reasoned that, at concentrations well below its Ki, Skp2 might be able to protect cyclin A/Cdk2 from inhibition by p27. To test this hypothesis, the same cyclin A/Cdk2 kinase assay was carried out to determine the inhibitory activity of p27 in the presence of 80 nM of Skp2N.
# It was then determined whether the 4060 peptide could prevent Skp2N from protecting cyclin A/Cdk2 from inhibition by p27. […] When 80 nM of Skp2N was included, 5 nM of p27 lost its ability to inhibit the kinase activity (lane 3). […] These findings indicate that the Skp2-cyclin A interaction is also a potential target to inhibit cyclin A kinase activity in tumor cells, particularly those overexpressing Skp2.
# To test this prediction, various peptides were added to an in vitro kinase reaction with purified cyclin A/Cdk2 (˜3 nM concentration). An E2F1-derived RxL peptide, LDL peptide, was used for comparison since it could inhibit cyclin A/Cdk2 kinase activity (Sun et al., 2006, and see next section). Since a TAT sequence was later added to these peptides for trans-membrane delivery (see next section), two versions of each peptide (without TAT and with TAT) was used in these kinase assays. These two versions of peptides yielded identical results and therefore only presented results with one version of the peptides.
# The effects of the 4060 peptide on cyclin A/Cdk2 kinase activity in the presence of Skp2 and p27 were then determined.
# [5] = tested on: human diploid fibroblasts WI-38; experiment: Cell survival MTS assay, WI-38; type: cell-based; conditions: 120 μM, 24 hours
# Procedure: In comparison, both TAT-Umt and TAT-4060 inhibited cyclin A/Cdk2 kinase activity in vitro at peptide concentrations of 100 μM (FIG. 11B). It is currently unknown how peptide concentrations in the culture media translate into intro-cellular peptide concentrations.
# as §1
# [6] = biological target: T3, Skp2-cyclin A interaction (Homo sapiens, UniProt P20248); experiment: GST pull-down, blocking of Skp2-cyclin A interaction by peptides; type: binding; conditions: for Blocking of Skp2N-cyclin A interaction: GST-Skp2N, myc-cyclin A/Cdk2 transfected 293T cell extracts
# T3 construct: expressed in transfected cells; host or cells: 293T (cyclin A/Cdk2)
# Procedure: GST pull down, p27 ubiquitylation assay, and cyclin A kinase assay. GST fusion proteins were purified on GSH-beads (Amersham), which were then incubated with transfected cell extracts for 1 hour in 4° C. with rocking. The beads were washed three times with lysis buffer (25 mM Hepes pH 7.6, 100 mM KCl, 0.1 mM EDTA, 10 mM MgCl2, 0.1% NP-40, 10% glycerol, 1 mM DTT) before analysis by SDS-PAGE and Western blotting.
# Skp2-cyclin A interaction and p27-cyclin A interaction can be blocked by distinct peptides. An important aspect of the RxL-1-IP interaction is that it can be blocked by a short RxL peptide (Adams et al., 1996). If the Skp2-cyclin A/Cdk2 interaction and the p27-cyclin A/Cdk2 interaction are mediated by different sequences on both sides of the interaction, as shown above, it can be predicted that the RxL peptide should not block Skp2-cyclin A interaction. […] Peptide concentrations required for their respective blocking activities were similar for RxL and 4060 peptides.
# [7] = biological target: T2, cyclin A/Cdk2; experiment: IP-kinase assay with myc-cyclin A/Cdk2 transfected 293T cell extract; type: biochemical; conditions: increasing amounts of peptide
# Procedure: In panel A, an IP-kinase assay was performed with myc-cyclin A/Cdk2 transfected 293T cell extract in the presence of increasing amounts of RxL or 4060 peptides. Phosphorylation of GST-Skp2N is visible in this gel. […] As indicated, increasing amounts of the 4060 or 4060AAAA peptides were included in the reactions. Phosphorylation of Rb-C was quantified and plotted as shown.
# as §2, with “To determine the amounts of various proteins in synchronized HeLa cells, extracts representing 7.5×10^4 HeLa cells were resolved with known amounts of purified proteins and compared in the same Western blots.” left out, “post-replating). […]” for “post-replating).”
Compound,Cell killing effect ([1]; U2OS),Change of peptide effect by Skp2 knockdown or overexpression ([1]; U2OS),WI-38 cells killed [5],Preventing Skp2N from protecting cyclin A/Cdk2 from inhibition by p27 [4],Blocking of Skp2N-cyclin A interaction [6],also measured
"YGRKKRRQRRRGKTSEAASGMGVAAAEKEE (TAT-4060AAAA) [mutant control peptide, reference compound]",did not have significant cell killing effects,–,–,–,–,Dissociation of interaction between cellular Skp2 and cyclin A/Cdk2 [2]: did not have this effect
"Cc1c2oc3c(C)ccc(C(=O)N[C@@H]4C(=O)N[C@H](C(C)C)C(=O)N5CCC[C@H]5C(=O)N(C)CC(=O)N(C)[C@@H](C(C)C)C(=O)O[C@@H]4C)c3nc-2c(C(=O)N[C@@H]2C(=O)N[C@H](C(C)C)C(=O)N3CCC[C@H]3C(=O)N(C)CC(=O)N(C)[C@@H](C(C)C)C(=O)O[C@@H]2C)c(N)c1=O [actinomycin D, Actinomycin D] (I: T[dV]P[Sar][NMeV] / II: T[dV]P[Sar][NMeV]; ester I:1-I:C, II:1-II:C; linker I:N-II:N via Actinocin(9to1))",–,–,–,–,–,Increase in G1 phase cells [3]: 20%
"YGRKKRRQRRRGETDHQYLAESS (TAT-Umt) [negative control peptide, reference compound]",did not have cell killing effects,not affected by Skp2 knockdown or overexpression,no effect,–,–,Inhibitory effect on cyclin A/Cdk2 kinase activity ([4]; 1 μM and 10 μM peptide): did not show inhibitory effect; Inhibition of cyclin A/Cdk2 kinase activity ([4]; 100 μM peptide): significant inhibition; Cell killing effect at 120 μM ([1]; 120 μM): did not exhibit cell killing effects
"CC(C)C[C@H](NC(=O)[C@H](CC(=O)O)NC(=O)[C@H](CC(C)C)NC(=O)[C@H](CCCNC(=N)N)NC(=O)[C@H](CCCNC(=N)N)NC(=O)[C@H](CCCCN)NC(=O)[C@@H](NC(=O)[C@@H]1CCCN1C(=O)CNC(=O)[C@H](CCCNC(=N)N)NC(=O)[C@H](CCCNC(=N)N)NC(=O)[C@H](CCCNC(=N)N)NC(=O)[C@H](CCC(N)=O)NC(=O)[C@H](CCCNC(=N)N)NC(=O)[C@H](CCCNC(=N)N)NC(=O)[C@H](CCCCN)NC(=O)[C@H](CCCCN)NC(=O)[C@H](CCCNC(=N)N)NC(=O)CNC(=O)[C@@H](N)Cc1ccc(O)cc1)C(C)C)C(=O)O [TAT-LDL, reference compound]",–,not affected by Skp2 knockdown or overexpression,25%,–,–,"Inhibition of cyclin A/Cdk2 kinase activity towards GST-Rb-C ([4]; 1 μM peptide, cyclin A/Cdk2 ~3 nM): ten-fold; Cell killing effect of single peptide ([1]; U2OS, 1 or 2 μM, 24 hours): neither TAT-LDL nor TAT-4060 exhibited any cell killing effects"
"KTSEAASGMGVAAAEKEE (peptide 4060AAAA) [4060 peptide with the four conserved residues mutated to alanine, reference compound]",–,–,–,did not have significant effects; also recorded: much weaker in disrupting the protective effect of Skp2N,abolished the blocking activity,–
KTSELLSGMGVSALEKEE (listed as Homo sapiens) [compound 4060],–,–,–,p27 gradually regained its inhibitory effects; also recorded: abolished this protective effect in a dose-dependent manner,can block,Blocking of binding between full-length GST-Skp2 and cyclin A/Cdk2 ([6]; full-length GST-Skp2): blocked binding; Effect of peptide itself on cyclin A/Cdk2 kinase activity towards Rb-C [7]: did not
